# Source: EP0551200A1, “Protein phosphatase inhibitors for use in therapy” (priority 1992, dated 1993)
# How the values were obtained:
# Egr-1 mRNA = assay: Stability of induced Egr-1 mRNA after actinomycin D, Northern blot, Balb/c 3T3 cells; assay type: cell-based, mouse; settings: actinomycin D 25 µg/ml
# Method: (A). Quiescent Balb/c 3T3 cells were incubated with either 0.5 µM of okadaic acid or 20% serum for 3 h or 0.5 h, respectively. Actimomycin D (final concentration being 25 µg/ml) was then added. The cells were then harvested at 0.5, 1, 1.5, 2 and 3 h after the addition of actinomycin D. RNA was isolated from these cells and analyzed by Northern blot. The blot was probed with Egr-1 or GADPH cDNA.
# Quiescent mouse Balb/c 3T3 fibroblasts were incubated with DMEM containing either 0.5µM okadaic acid or 10% fetal calf serum for the times indicated in Fig. 10. […] Cells were harvested at the indicated time points and extracted for RNA and the RNA subjected to Northern blot analysis (Fig. 10).
# Egr-1 protein [1] = assay: Western blot analysis of Egr-1 protein from primary human fibroblasts; assay type: cell-based
# Method: Quiescent primary human fibroblasts were incubated with MEM containing 0.5 µM of okadaic acid for the times indicated. As a positive control, the quiescent cells were also incubated with medium containing 20% fetal calf serum for 2 h. Total cellular proteins were extracted and subjected to Western blot analysis as described previously (Cao et al, Mol. Cell. Biol. 10, 1931-1939, 1989). The blot was reacted with anti-Egr-1 polyclonal antibody (R5232).
# Cellular proteins were extracted from quiescient, okadaic acid-treated and serum-treated human fibroblasts and subjected to Western blot analysis using rabbit polyclonal Egr-1 antibodies. In the control quiescent cells, traces of Egr-1 protein with molecular masses of 80 kDa and 100 kDa were detected. An approximately 6-fold increase of the 80 kDa protein was measured in the cells 2 h after serum stimulation. An approximately 2-fold increase in the 80 kDa Egr-1 protein was detected in the cells after 1 h okadaic acid treatment. However, at 2.5 h after okadaic acid treatment the Egr-1 protein was mostly detected as the 100 kDa moiety rather than as the 80 kDa protein (Fig. 13). […] By 6 h after okadaic acid treatment the cellular level of the 100 kDa Egr-1 protein was reduced (Fig. 13). […]
# Egr-1 protein [2] = assay: Immunoprecipitation of 32P-labeled Egr-1 protein from Balb/c 3T3 cells; assay type: cell-based, mouse; settings: 2 h treatment; OA 0.5 µM, calyculin A 25 nM, 20% fetal calf serum
# Method: Quiescent Balb/c 3T3 cells were labeled with [³²P]-orthophosphate and incubated with either 20% fetal calf serum or okadaic acid (0.5 µM) for 2 h as described in "Experimental Procedures" of Example 2. Egr-1 protein(s) was immunoprecipitated by anti-Egr-1 antibody (R5232) and subjected to 7.5% SDS-PAGE. The dried SDS-gel was autoradiographed. lanes C, S and OA show immunoprecipitated proteins derived from quiescent cells, serum and okadaic acid-treated cells respectively. • (B). The immunoprecipitated Egr-1 protein(s) from okadaic acid-treated [³²P]-labeled Balb/c 3T3 cells was also subjected to 2-D gel electrophoresis as previously described (Guy et al, J. Biol. Chem. 266, 14343-14352, 1991). […]
# The radioactivity of the in vitro transcribed RNA was determined and equal amounts of radioactive RNA from uninduced and okadaic acid treated cells were used to hybridize to specific plasmid (5 µg) previously applied to a nylon matrix with the aid of a slot blot applicator (Schleicher & Schuell, Keene, NH, US). […]
# Okadaic acid or calyculin A was then added to a final concentration of 0.5 µM or 25 nM respectively and incubated for another 2 h. […] The immunoprecipitated proteins were analyzed by 7.5% SDS-PAGE as well as by two-dimensional gel electrophoresis as described previously (Guy et al, J. Biol. Chem. 266, 14343-14352, 1991). […]
structure (smiles),measurement,setting,value
C=C1[C@@H](O)[C@@H]2O[C@]3(CC[C@H](/C=C/[C@@H](C)[C@@H]4CC(C)=C[C@@]5(O[C@H](C[C@@](C)(O)C(=O)O)CC[C@H]5O)O4)O3)CC[C@H]2O[C@@H]1[C@@H](O)C[C@H](C)[C@H]1O[C@@]2(CCCCO2)CC[C@H]1C [okadaic acid],time for which induced Egr-1 mRNA is detectable after actinomycin D treatment,Egr-1 mRNA; 0.5 µM,up to 5.5 h
same,half life of the induced Egr-1 message,Egr-1 mRNA; calculated from the data in Fig. 10,about 120 min
same,level of the 100 kDa Egr-1 protein relative to the 80 kDa Egr-1 protein of control cells,"Egr-1 protein [1]; 0.5 µM, 2.5 h",3 to 4 fold
same,fold induction at 0.5 µM,"Egr-1 protein [1]; Homo sapiens, Fibroblast, 1 h, read-out: increase in the 80 kDa Egr-1 protein",~2
same,Egr-1 phosphoprotein immunoprecipitated (in words),Egr-1 protein [2],high cellular concentration of the about 100 kDa Egr-1 phosphoprotein
